Results from ChEMBL document CHEMBL4265964, “Discover the leading compound of 4β-S-(5-fluorobenzoxazole)-4-deoxy-4'-demethylepipodophyllotoxin with millimolar-potency toxicity by modifying the molecule structure of 4'-demethylepipodophyllotoxin” (Eur J Med Chem, 2018).
Active and inactive are the calls of the source. The rule behind the calls is not given here.

Experiments:
HepG2 [1] = assay: Cell cycle arrest in human HepG2 cells assessed as accumulation at G2/M phase at 5 to 10 uM after 42 hrs by propidium iodide staining based flow cytometry; assay type: functional
HeLa = assay: Cytotoxicity against human HeLa cells after 48 hrs by MTT assay; assay type: functional, cell-based
MCF7 = assay: Cytotoxicity against human MCF7 cells after 48 hrs by MTT assay; assay type: functional, cell-based; conditions: MCF7, 48 h
Homo sapiens [2] = species on record: Homo sapiens; assay: Inhibition of human topoisomerase-2 assessed as reduction in relaxation of kinetoplast DNA at 50 uM after 30 mins by ethidium bromide staining based agarose gel electrophoresis method
L02 [3] = assay: Induction of DNA damage in human HL7702 cells assessed as gammaH2AX accumulation at 50 uM after 12 hrs by DAPI staining based immuno-fluorescence assay; assay type: cell-based; conditions: l02, 12 h
L02 [4] = assay: Induction of apoptosis in human HL7702 cells assessed as early apoptotic cells at 100 uM after 42 hrs by Annexin V-FITC/propidium iodide staining based flow cytometry (reference value: 0.3%); assay type: cell-based; conditions: l02, 42 h
[5] = Induction of apoptosis in human HL7702 cells assessed as live cells at 100 uM after 42 hrs by Annexin V-FITC/propidium iodide staining based flow cytometry (reference value: 98.5%); assay type: cell-based; conditions: HL7702 (L02) cells, read-out: Activity
L02 [6] = assay: Cell cycle arrest in human HL7702 cells assessed as accumulation at G2/M phase at 5 to 10 uM after 42 hrs by propidium iodide staining based flow cytometry relative to control; conditions: l02, 42 h
MRC5 = assay: Cytotoxicity against human MRC5 cells after 48 hrs by MTT assay; assay type: cell-based; conditions: MRC5, 48 h
L02 [7] = assay: Upregulation of PARK7 expression in human HL7702 cells at 50 uM after 12 hrs by proteomic analysis; assay type: functional, cell-based
Homo sapiens [8] = species on record: Homo sapiens; assay: Inhibition of human topoisomerase-2 assessed as reduction in relaxation of kinetoplast DNA at 200 uM after 30 mins by ethidium bromide staining based agarose gel electrophoresis method
HMEC = assay: Cytotoxicity against HMEC after 48 hrs by MTT assay; assay type: cell-based; conditions: Homo sapiens
L02 [9] = assay: Upregulation of Akt expression in human HL7702 cells at 50 uM after 12 hrs by proteomic analysis relative to control; assay type: functional, cell-based
L02 [10] = assay: Upregulation of COX5A expression in human HL7702 cells at 50 uM after 12 hrs by proteomic analysis relative to control; assay type: functional, cell-based
HepG2 [11] = assay: Induction of apoptosis in human HepG2 cells assessed as late apoptotic cells at 10 uM after 42 hrs by Annexin V-FITC/propidium iodide staining based flow cytometry (reference value: 0.9%); assay type: functional
L02 [12] = assay: Induction of apoptosis in human HL7702 cells assessed as necrotic cells at 100 uM after 42 hrs by Annexin V-FITC/propidium iodide staining based flow cytometry (reference value: 0.2%); assay type: cell-based; conditions: l02, 42 h
HepG2 [13] = assay: Induction of apoptosis in human HepG2 cells assessed as early apoptotic cells at 10 uM after 42 hrs by Annexin V-FITC/propidium iodide staining based flow cytometry (reference value: 0.5%); assay type: functional
L02 [14] = assay: Induction of apoptosis in human HL7702 cells assessed as late apoptotic cells at 100 uM after 42 hrs by Annexin V-FITC/propidium iodide staining based flow cytometry (reference value: 1%); assay type: cell-based; conditions: l02, 42 h
HepG2 [15] = assay: Cytotoxicity against human HepG2 cells after 48 hrs by MTT assay; assay type: functional, cell-based; conditions: HepG2, 48 h
A549 = assay: Cytotoxicity against human A549 cells after 48 hrs by MTT assay; assay type: functional, cell-based; conditions: A549, 48 h
HepG2 [16] = assay: Induction of apoptosis in human HepG2 cells assessed as live cells at 10 uM after 42 hrs by Annexin V-FITC/propidium iodide staining based flow cytometry (reference value: 98.2%); assay type: functional
L02 [17] = assay: Upregulation of SRSF3 expression in human HL7702 cells at 50 uM after 12 hrs by proteomic analysis relative to control; assay type: functional, cell-based
L02 [18] = assay: Cytotoxicity against human HL7702 cells after 48 hrs by MTT assay; assay type: cell-based; conditions: L02, 48 h
Homo sapiens [19] = species on record: Homo sapiens; assay: Inhibition of human topoisomerase-2 assessed as reduction in relaxation of kinetoplast DNA at 100 uM after 30 mins by ethidium bromide staining based agarose gel electrophoresis method
[20] = Cytotoxicity against human H8 cells after 48 hrs by MTT assay; assay type: cell-based
HepG2 [21] = assay: Cell cycle arrest in human HepG2 cells assessed as accumulation at G2/M phase at 1 uM after 42 hrs by propidium iodide staining based flow cytometry relative to control; assay type: functional
HepG2 [22] = assay: Induction of apoptosis in human HepG2 cells assessed as necrotic cells at 10 uM after 42 hrs by Annexin V-FITC/propidium iodide staining based flow cytometry (reference value: 0.3%); assay type: functional
L02 [23] = assay: Upregulation of HMGB1 expression in human HL7702 cells at 50 uM after 12 hrs by proteomic analysis; assay type: functional, cell-based

## COc1cc([C@@H]2c3cc4c(cc3[C@@H](O[C@@H]3O[C@@H]5CO[C@@H](C)O[C@H]5[C@H](O)[C@H]3O)[C@H]3COC(=O)[C@H]23)OCO4)cc(OC)c1O [ETOPOSIDE]
HepG2 [1]
  Activity: Active
HeLa
  IC50: 21.4 µM
MCF7
  IC50: 53.8 µM
Homo sapiens [2]
  inhibition: inactive
L02 [3]
  Activity: Toxic
L02 [4]
  Activity: 37%
[5]
  viability at 42 h, 100 µM: 28%
L02 [6]
  Activity: 64%
MRC5
  IC50: 33.5 µM
L02 [7]
  Activity: inactive
Homo sapiens [8]
  inhibition: Active
HMEC
  IC50: 21.5 µM
L02 [9]
  Activity: inactive
L02 [10]
  Activity: inactive
HepG2 [11]
  Activity: 11%
L02 [12]
  Activity: 2.2%
HepG2 [13]
  Activity: 7%
L02 [14]
  Activity: 32.8%
HepG2 [15]
  IC50: 20 µM
A549
  IC50: 22.5 µM
HepG2 [16]
  Activity: 76.6%
L02 [17]
  Activity: inactive
L02 [18]
  IC50: 24.6 µM
Homo sapiens [19]
  inhibition: Active
[20]
  IC50: 75.4 µM
HepG2 [21]
  Activity: 33%
HepG2 [22]
  Activity: 5.4%
L02 [23]
  Activity: inactive
